Source: ChEMBL document CHEMBL3124779, “Discovery of ABT-267, a pan-genotypic inhibitor of HCV NS5A” (J Med Chem, 2014)
pEC50: −log10 of the molar value. ≈ marks a conversion by molar mass, not a printed value.

How the values were obtained:
Hepatitis C virus [1] = assay: Resistant ratio of EC50 for wild type HCV1b to EC50 for HCV1b harboring NS5A Y93H mutant infected in human HuH7 cells; type: functional, Hepacivirus hominis, genotype 1b, Huh-7
Hepatitis C virus [2] = assay: Resistant ratio of EC50 for wild type HCV1b to EC50 for HCV1b harboring NS5A L31V mutant infected in human HuH7 cells; type: functional, Hepacivirus hominis, genotype 1b, Huh-7
Hepatitis C virus [3] = assay: Resistant ratio of EC50 for wild type HCV1a to EC50 for HCV1a harboring NS5A Y93N mutant infected in human HuH7 cells; type: functional, Hepacivirus hominis, subtype 1a, Huh-7
Hepatitis C virus [4] = assay: Resistant ratio of EC50 for wild type HCV1a to EC50 for HCV1a harboring NS5A Y93H mutant infected in human HuH7 cells; type: functional, Hepacivirus hominis, subtype 1a, Huh-7
Hepatitis C virus [5] = assay: Resistant ratio of EC50 for wild type HCV1a to EC50 for HCV1a harboring NS5A Y93C mutant infected in human HuH7 cells; type: functional, Hepacivirus hominis, subtype 1a, Huh-7
Hepatitis C virus [6] = assay: Antiviral activity against HCV1b harboring NS5A L31M and Y93H mutant infected in human HuH7 cells assessed as inhibition of viral replication after 4 days by luciferase reporter gene assay; type: functional, Hepacivirus hominis, genotype 1b, Huh-7
Hepatitis C virus [7] = assay: Antiviral activity against HCV1a harboring NS5A Y93N mutant infected in human HuH7 cells assessed as inhibition of viral replication after 4 days by luciferase reporter gene assay; type: functional, Hepacivirus hominis, subtype 1a, Huh-7
Hepatitis C virus [8] = assay: Antiviral activity against HCV1a harboring NS5A Y93C mutant infected in human HuH7 cells assessed as inhibition of viral replication after 4 days by luciferase reporter gene assay; type: functional, Hepacivirus hominis, subtype 1a, Huh-7
Hepatitis C virus [9] = assay: Antiviral activity against HCV1a harboring NS5A Q30R mutant infected in human HuH7 cells assessed as inhibition of viral replication after 4 days by luciferase reporter gene assay; type: functional, Hepacivirus hominis, subtype 1a, Huh-7
[10] = Half life in monkey at 2.5 mg/kg, po; type: ADME, organism-based, Macaca mulatta; design: dose 2.5 mg/kg, route oral; conditions: rhesus monkey, in vivo
[11] = AUC in dog at 2.5 mg/kg, po; type: ADME, organism-based, Canis lupus familiaris; design: dose 2.5 mg/kg, route oral; conditions: plasma
[12] = Cmax in dog at 2.5 mg/kg, po; type: ADME, organism-based, Canis lupus familiaris; design: dose 2.5 mg/kg, route oral; conditions: in vivo
[13] = Tmax in dog at 2.5 mg/kg, po; type: ADME, organism-based, Canis lupus familiaris; design: dose 2.5 mg/kg, route oral; conditions: in vivo
[14] = Volume of distribution at steady state in dog at 1 mg/kg, iv; type: ADME, organism-based, Canis lupus familiaris; design: dose 1 mg/kg, route intravenous; conditions: in vivo, read-out: Vdss
[15] = Oral bioavailability in rat at 3 mg/kg; type: ADME, organism-based; conditions: in vivo
[16] = Clearance in rat at 3 mg/kg, iv; type: ADME, organism-based; design: dose 3 mg/kg, route intravenous; conditions: in vivo
[17] = Half life in rat at 3 mg/kg, po; type: ADME, organism-based; design: dose 3 mg/kg, route oral; conditions: in vivo
[18] = Kinetic solubility of the compound in 10 mM of phosphate buffer at pH 7.2 by CLND method; type: physicochemical; conditions: read-out: Kinetic_solubility
Hepatitis C virus [19] = assay: Ratio of EC50 for HCV1b Con1 infected in human HuH7 cells in presence of 40% human plasma to EC50 for HCV1b Con1 infected in human HuH7 cells in absence of 40% human plasma; type: functional, Hepacivirus hominis, isolate Con1, Huh-7
Hepatitis C virus [20] = assay: Ratio of EC50 for HCV1a H77 infected in human HuH7 cells in presence of 40% human plasma to EC50 for HCV1a H77 infected in human HuH7 cells in absence of 40% human plasma; type: functional, Hepacivirus hominis, genotype 1a H77, Huh-7
Hepatitis C virus [21] = assay: Antiviral activity against HCV1b Con1 infected in human HuH7 cells assessed as inhibition of viral replication after 4 days by luciferase reporter gene assay in presence of 40% human plasma; type: functional, organism-based, Hepacivirus hominis; conditions: isolate Con1, Huh-7, Plasma, 96 h
Hepatitis C virus [22] = assay: Antiviral activity against HCV1a H77 infected in human HuH7 cells assessed as inhibition of viral replication after 4 days by luciferase reporter gene assay in presence of 40% human plasma; type: functional, organism-based, Hepacivirus hominis; conditions: genotype 1a H77, Huh-7, Plasma, 96 h
Hepatitis C virus [23] = assay: Antiviral activity against HCV1b Con1 infected in human HuH7 cells assessed as inhibition of viral replication after 4 days by luciferase reporter gene assay; type: functional, organism-based, Hepacivirus hominis; conditions: isolate Con1, Huh-7, 96 h
Hepatitis C virus [24] = assay: Resistant ratio of EC50 for wild type HCV1b to EC50 for HCV1b harboring NS5A L31F mutant infected in human HuH7 cells; type: functional, Hepacivirus hominis, genotype 1b, Huh-7
Hepatitis C virus [25] = assay: Resistant ratio of EC50 for wild type HCV1a to EC50 for HCV1a harboring NS5A M28T mutant infected in human HuH7 cells; type: functional, Hepacivirus hominis, subtype 1a, Huh-7
Homo sapiens = species on record: Homo sapiens; assay: Toxicity in HCV1 infected patient assessed as laboratory abnormalities at 5 to 200 mg qd for 3 days; type: organism-based; conditions: in vivo, 72 h
Hepatitis C virus [26] = assay: Antiviral activity in HCV1 infected in human assessed as log reduction of viral RNA at 5 to 200 mg qd for 3 days relative to control; type: functional, Hepacivirus hominis, genotype 1
Hepatitis C virus [27] = assay: Resistant ratio of EC50 for wild type HCV1b to EC50 for HCV1b harboring NS5A L31M and Y93H mutant infected in human HuH7 cells; type: functional, Hepacivirus hominis, genotype 1b, Huh-7
Hepatitis C virus [28] = assay: Resistant ratio of EC50 for wild type HCV1b to EC50 for HCV1b harboring NS5A L31F and Y93H mutant infected in human HuH7 cells; type: functional, Hepacivirus hominis, genotype 1b, Huh-7
Hepatitis C virus [29] = assay: Resistant ratio of EC50 for wild type HCV1b to EC50 for HCV1b harboring NS5A L28M and Y93H mutant infected in human HuH7 cells; type: functional, Hepacivirus hominis, genotype 1b, Huh-7

In the case of `COC(=O)N[C@H](C(=O)N1CCC[C@H]1C(=O)Nc1ccc([C@@H]2CC[C@@H](c3ccc(NC(=O)[C@@H]4CCCN4C(=O)[C@@H](NC(=O)OC)C(C)C)cc3)N2c2ccc(C(C)(C)C)cc2)cc1)C(C)C` [OMBITASVIR], the “Ratio EC50” value (Hepatitis C virus [1]) was 77, the “Ratio EC50” value (Hepatitis C virus [2]) was 8 and the “Ratio EC50” value (Hepatitis C virus [3]) was 66739. The “Ratio EC50” value (Hepatitis C virus [4]) was 41382, the “Ratio EC50” value (Hepatitis C virus [5]) was 1675 and the Efficacy (Hepatitis C virus [6]) was 11%. For the same molecule, the Efficacy (Hepatitis C virus [7]) was 25%, the Efficacy (Hepatitis C virus [8]) was 24% and the Efficacy (Hepatitis C virus [9]) was 60%. For the same molecule, the half-life [10] was 5 h, the AUC [11] was 8000 ng·h/mL and the Cmax [12] was 640 ng/mL. For the same molecule, the Tmax [13] was 3.3 h, the Vd [14] was 1.8 L/kg and the bioavailability [15] was 6.2%. The clearance [16] was 10.8 mL/min/kg, the half-life [17] was 15.9 h and the solubility kinetic [18] was 2.7 µM (≈ 2.41 µg/mL). For the same molecule, the “Ratio EC50” value (Hepatitis C virus [19]) was 11, the “Ratio EC50” value (Hepatitis C virus [20]) was 13 and the pEC50 (Hepatitis C virus [21]) was 10.25. For the same molecule, the pEC50 (Hepatitis C virus [22]) was 9.73, the pEC50 (Hepatitis C virus [23]) was 11.30 and the “Ratio EC50” value (Hepatitis C virus [24]) was 10. For the same molecule, the “Ratio EC50” value (Hepatitis C virus [25]) was 8965, the Activity (Homo sapiens) was “Non-toxic” and the Activity (Hepatitis C virus [26]) was “<=3.1 log10IU/ml”. For the same molecule, the “Ratio EC50” value (Hepatitis C virus [27]) was 142, the “Ratio EC50” value (Hepatitis C virus [28]) was 10270 and the “Ratio EC50” value (Hepatitis C virus [29]) was 415.
